PMC10439028, “SGLT5 is the renal transporter for 1,5-anhydroglucitol, a major player in two rare forms of neutropenia” (Cellular and Molecular Life Sciences: CMLS, 2023)

Molecular target: T1, hSGLT5 Gly471Glu (Homo sapiens, UniProt A0PJK1, G471E)
T1 construct: pUB83-hSGLT5-iso2 as well as the various SGLT5 mutants obtained were used to transduce HEK293T cells; expressed in transfected cells; host or cells: HEK293T, lentiviral transduction (pUB83)
T1 sequence (A0PJK1 1-596 G471E): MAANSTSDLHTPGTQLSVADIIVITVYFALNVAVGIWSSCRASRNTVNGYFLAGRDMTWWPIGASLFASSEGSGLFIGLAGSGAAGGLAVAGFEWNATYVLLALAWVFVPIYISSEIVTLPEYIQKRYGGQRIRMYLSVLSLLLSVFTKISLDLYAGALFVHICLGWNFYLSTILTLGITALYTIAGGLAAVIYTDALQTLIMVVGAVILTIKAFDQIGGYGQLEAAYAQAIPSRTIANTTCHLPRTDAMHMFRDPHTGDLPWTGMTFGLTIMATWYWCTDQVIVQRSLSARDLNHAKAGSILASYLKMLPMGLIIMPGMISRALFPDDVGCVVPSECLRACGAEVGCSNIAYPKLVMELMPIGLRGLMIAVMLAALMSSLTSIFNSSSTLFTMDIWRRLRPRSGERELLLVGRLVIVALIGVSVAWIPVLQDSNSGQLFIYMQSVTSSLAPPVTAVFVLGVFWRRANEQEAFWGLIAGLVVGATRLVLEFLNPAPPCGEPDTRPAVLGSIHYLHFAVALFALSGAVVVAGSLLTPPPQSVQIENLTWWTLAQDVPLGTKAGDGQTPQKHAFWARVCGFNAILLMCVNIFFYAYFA
Assay: 1,5-AG uptake in HEK293T cells overexpressing SGLT5 variant Gly471Glu
Format: cell-based
Method: For a typical transporter experiment we proceeded as follows. […] To minimize cell loss during the various washing steps in the radioactive uptake experiments, the wells where the cells were seeded were previously coated with poly- D-lysine, which improved their adhesion to the plastic surface of the wells. For this, each well of the 24-well plates was treated with 200 µl of a 0.01% poly-L-lysine solution for 10 min, washed 3 times with 1 ml of sterilized water and left to dry for 2 h. Only then could the 24-well plates be seeded with the appropriate cell lines and cultured overnight at 37 °C in 5% CO2.
On day two, the radioactive uptake assay could be performed. The cell culture media was removed by aspiration and cells were incubated for 20 min at 37 °C and 5% CO2 with a basal medium (10 mM HEPES, pH 7.4, 1 mM CaCl2, 1 mM MgCl2, 2 mM KCl) containing 140 mM choline chloride to deplete intracellular […] ions. This was subsequently replaced with the uptake medium (basal medium + 140 mM NaCl, 25 μM cytochalasin B, 1 mg/ml BSA) containing either radioactive U-[^14C]-mannose (15,000 cpm/well) or 2-[^3H]-1,5-AG (30,000 cpm/well) and respectively, non-radioactive mannose or 1,5-AG, at the required concentration in the experiment. Importantly, when measuring the transport of mannose, the uptake media also contained 0.5 mM glucose. This resulted from the need to reduce the background transport of mannose in control HEK293T cells in order to optimize the transport assay for this sugar in our model cell lines. […]
Once the uptake medium was added to the cells, the plates were incubated at 37 °C in 5% CO2 during the required time. […] In each experiment, the transport activities were calculated after subtracting a “blank” value, corresponding to the radioactivity in the appropriate control cells (HEK293T cells that were stably or transiently transfected with one of the parent plasmids pEF6/MycHisA, pEF6HisB, pUB82 or pUB83 with no inserted cDNA) that were analyzed in parallel. […]

## OC[C@H]1OC[C@H](O)[C@@H](O)[C@@H]1O [1,5-AG, 1,5-anhydroglucitol]
Variant Gly471Glu
  Vmax: No transport
  effect of mutation on ability of SGLT5 to transport 1,5-AG: abolished
Variant Gly471Glu (rs61741107)
  Km for 1,5-AG: No transport
